According to patent US10941169B2, “Crystal of cyclic phosphonic acid sodium salt and method for manufacturing same” (OTSUKA CHEMICAL CO., LTD., priority 2014, dated 2021):
Counter-ions that a name gives are not always drawn.

Experiments:
[1] = Stability test at 35° C. (storage, weekly LC purity analysis); type: physicochemical; conditions: stored at 35° C.; for purity in stability test, number of days 0: day 0; for purity in stability test, number of days 7: day 7; for purity in stability test, number of days 14: day 14; for purity in stability test, number of days 21: day 21; for purity in stability test, number of days 28: day 28; for stability (assessment in words): results of Table 1; for purity in stability test, number of days 56: day 56
Experimental: As the amorphous of 2ccPA above, 300 mg of 2ccPA (obtained in Example 3) dissolved in 5 mL of water and freeze-dried was used.
In the stability test, about 15 mg each of the 2ccPA crystal of the present invention, the 2ccPA of a formula described in documents, and an amorphous of 2ccPA were weighed, and individually diluted with 5 mL of acetonitrile/water (1/1). Then, 5 μL each of the diluted solutions was analyzed weekly using the LC-2010CHT (Shimazu Corporation).

[2] = Storage stability, hermetically sealed, −20° C. and 35° C. for 3 months; type: physicochemical; conditions: stored at −20° C. and 35° C. for 3 months
From the text: The crystal of 2ccPA of the present invention is excellent in storage stability.

[3] = listed as 2ccPA crystal obtained by the production method of the present invention, sodium salt

CCCCCCCC/C=C\CCCCCCCC(=O)OCC1COP(=O)([O-])C1.[Na+] (stereo not shown) [Amorphous of 2ccPA, sodium salt of 9-octadecenoic acid (9Z)-(2-hydroxy-2-oxo-2λ^5-1,2-oxaphosphoran-4-yl)methyl ester]
purity in stability test, number of days 0 [1]: 99.599% | purity in stability test, number of days 7 [1]: 83.363% | purity in stability test, number of days 14 [1]: 45.02% | purity in stability test, number of days 21 [1]: 34.738% | purity in stability test, number of days 28 [1]: 27.077% | stability (assessment in words) [1]: unsatisfactory

CCCCCCCC/C=C\CCCCCCCC(=O)OCC1COP(=O)([O-])C1.[Na+] (stereo not shown) [2ccPA crystal of the present invention, 4-[(Z)-octadec-9-enoyloxymethyl]-2-oxo-1,2-λ^5-oxaphosphorane-2-olate sodium salt]
storage stability (decrease in purity, decomposition) [2]: little decrease in purity | purity in stability test, number of days 0 ([1]; sodium salt): 99.561% | purity in stability test, number of days 7 ([1]; sodium salt): 99.605% | purity in stability test, number of days 14 ([1]; sodium salt): 99.576% | purity in stability test, number of days 21 ([1]; sodium salt): 99.631% | purity in stability test, number of days 28 ([1]; sodium salt): 99.626% | purity in stability test, number of days 42 ([1]; day 42): 99.593% | purity in stability test, number of days 56 [1, 3]: 99.493% | purity in stability test, number of days 56 ([1]; sodium salt): 99.493% | stability (assessment in words) [1, 3]: excellent stability

CCCCCCCC/C=C\CCCCCCCC(=O)OCC1COP(=O)(O)C1 (stereo not shown) [A formula described in documents, sodium salt of 9-octadecenoic acid (9Z)-(2-hydroxy-2-oxo-2λ^5-1,2-oxaphosphoran-4-yl)methyl ester]
purity in stability test, number of days 0 [1]: 67.934% | purity in stability test, number of days 7 [1]: 66.665% | purity in stability test, number of days 14 [1]: 67.517% | purity in stability test, number of days 21 [1]: 62.77% | purity in stability test, number of days 28 [1]: 59.841% | stability (assessment in words) [1]: unstable
